Reference: patent US20260001893A1, “SMALL MOLECULE MODULATORS OF STAT6” (Gilead Sciences, Inc., priority 2024, published 2026)

Tested on: Eotaxin-3 (CCL26) release in human whole blood stimulated with IL-4
Test: Human whole blood eotaxin-3 assay (IL-4 stimulated eotaxin-3 release)
Type: cell-based
Conditions: Homo sapiens, 48 h, human whole blood stimulated with recombinant human IL-4, 48 h, geometric mean; for EC50: inhibition of eotaxin-3 release, given for test compounds with >80% Emax
Method: Human Whole Blood Eotaxin-3 Assay
This was a human whole blood assay using recombinant human Interleukin 4 to stimulate the blood and measuring the ability of the test compounds to inhibit eotaxin-3 release. The biological activities of the test compounds have been tested in human whole blood stimulated with IL-4 measuring Eotaxin-3 release. The test compounds were added to 384 well clear flat-bottom plate in a 4-fold serial dilution in triplicates using a liquid handler. Human whole blood stabilized in lithium-heparin tubes was added in a volume of 65 μL per well, resulting in a final DMSO concentration of 0.5%. The plate is incubated for 2 h at 37° C. under 5% CO2/95% air. Subsequently, 5 μL of recombinant human IL-4 (R&D Systems, cat #204-ILB) was added to the wells to a final concentration of […]. The plate was incubated for 48 h at 37° C. under 5% CO2/95% air. The plate was spun down for 10 minutes at 500×g and 20 μL supernatant was harvested and transferred to a 384 well v-bottom plate using a liquid handler and stored at −20° C. until further analysis. 10 μL supernatant was used to measure the level of Eotaxin-3 (CCL26) using Human Eotaxin-3 MSD kit from Mesocsale (Cat #K251UEK-4). The assay was performed according to the manufacture instructions.
The data from the human whole blood eotaxin-3 assay is shown below for Examples 1ab3, 1ab6, 1d23, and 1d4 (where the effect in % is plotted against the test concentration in M on a log-scale).

Structure (SMILES)	EC50 [nM]	Emax (given for test compounds with <80% Emax) [%]
Cc1cc(C(=O)N(C)C)ccc1C1=CCN(Cc2cc3c(-n4ncc(N)cc4=O)ccnc3n2C)CC1 [Example 1ab5, 4-(1-((4-(4-Amino-6-oxopyridazin-1 (6H)-yl)-1-methyl-1H-pyrrolo[2,3-b]pyridin-2-yl)methyl)-1,2,3,6-tetrahydropyridin-4-yl)-N,N,3-trimethylbenzamide]	1530	–
CNc1ccn(-c2ccnc3c2cc(CN2CC=C(c4ncc(C(=O)N(C)C)cc4C(F)(F)F)CC2)n3C)c(=O)c1 [Example 1m69, N,N-Dimethyl-6-[1-[[1-methyl-4-[4-(methylamino)-2-oxo-1-pyridyl]pyrrolo[2,3-b]pyridin-2-yl]methyl]-3,6-dihydro-2H-pyridin-4-yl]-5-(trifluoromethyl)pyridine-3-carboxamide]	319	–
CNc1ccn(-c2ccnc3c2cc([C@@H](C)N2CCC(c4c(C)cc(C(=O)N(C)C)cc4F)CC2)n3C)c(=O)c1 [Example 1m108, (R)-3-fluoro-N,N,5-trimethyl-4-(1-(1-(1-methyl-4-(4-(methylamino)-2-oxopyridin-1 (2H)-yl)-1H-pyrrolo[2,3-b]pyridin-2-yl)ethyl)piperidin-4-yl)benzamide]	317	–
CNc1ccn(-c2ccnc3c2cc(CN2CCC(c4ccc(C(=O)N(C)C)cc4)C[C@@H]2C)n3C)c(=O)c1 (single isomer, unassigned) [Example 1d43]	21.9	–
CNc1ccn(-c2ccnc3c2cc(CN2CCC(c4ccc(C(=O)N(C)C)cc4Cl)CC2)n3C)c(=O)c1 [Example 1d37, 3-Chloro-N,N-dimethyl-4-[1-[[1-methyl-4-[4-(methylamino)-2-oxo-1-pyridyl]pyrrolo[2,3-b]pyridin-2-yl]methyl]-4-piperidyl]benzamide]	148	–
Cc1cc(C(=O)N(C)C)nnc1C1=CCN(Cc2cc3c(-n4ccc5c(c4=O)CCN5)ccnc3n2C)CC1 [Example 1m81, N,N,5-trimethyl-6-(1-((1-methyl-4-(4-oxo-1,2,3,4-tetrahydro-5H-pyrrolo[3,2-c]pyridin-5-yl)-1H-pyrrolo[2,3-b]pyridin-2-yl)methyl)-1,2,3,6-tetrahydropyridin-4-yl)pyridazine-3-carboxamide]	–	30 to 40
CNc1ccn(-c2ccnc3c2cc(CN2CC=C(c4c(C)cc(C(=O)N(C)C)cc4Cl)CC2)n3C)c(=O)c1 [Example 1m57, 3-Chloro-N,N,5-trimethyl-4-(1-((1-methyl-4-(4-(methylamino)-2-oxopyridin-1 (2H)-yl)-1H-pyrrolo[2,3-b]pyridin-2-yl)methyl)-1,2,3,6-tetrahydropyridin-4-yl)benzamide]	27	–
CNc1ccn(-c2ccnc3c2cc(CN2CCC(c4c(F)cc(C(=O)N(C)C)cc4F)CC2)n3C)c(=O)n1 [Example 1m95, 3,5-difluoro-N,N-dimethyl-4-(1-((1-methyl-4-(4-(methylamino)-2-oxopyrimidin-1 (2H)-yl)-1H-pyrrolo[2,3-b]pyridin-2-yl)methyl)piperidin-4-yl)benzamide]	44.6	–

Continued, in another order:

EC50 [nM]	Structure (SMILES)	Emax (given for test compounds with <80% Emax) [%]
3.42	[2H]C([2H])([2H])N(C(=O)c1cc(C)c(C2=CCN([C@@H](C)c3cc4c(-n5ccc6c(c5=O)CCN6)ccnc4n3C)CC2)c(F)c1)C([2H])([2H])[2H] [Example 1m128, (S)-3-fluoro-5-methyl-N,N-bis(methyl-d3)-4-(1-(1-(1-methyl-4-(4-oxo-1,2,3,4-tetrahydro-5H-pyrrolo[3,2-c]pyridin-5-yl)-1H-pyrrolo[2,3-b]pyridin-2-yl)ethyl)-1,2,3,6-tetrahydropyridin-4-yl)benzamide]	–
12.2	C[C@@H](c1cc2c(-n3ccc4c(c3=O)CCN4)ccnc2n1C)N1CCC(c2c(F)cc(C(=O)N(C)C)cc2F)CC1 [Example 1m126, (S)-3,5-difluoro-N,N-dimethyl-4-(1-(1-(1-methyl-4-(4-oxo-1,2,3,4-tetrahydro-5H-pyrrolo[3,2-c]pyridin-5-yl)-1H-pyrrolo[2,3-b]pyridin-2-yl)ethyl)piperidin-4-yl)benzamide]	–
16.4	Cc1cc(C(=O)N(C)C)cc(F)c1C1CCN([C@@H](C)c2cc3c(-n4ccc5c(c4=O)CCN5)ccnc3n2C)CC1 (single isomer, unassigned) [Example 1m121]	–
3.64	CNc1ccn(-c2ccnc3c2cc(CN2CC=C(c4c(C)cc(C(=O)N(C)C)cc4F)CC2)n3C)c(=O)c1 [Example 1m56, 3-Fluoro-N,N,5-trimethyl-4-(1-((1-methyl-4-(4-(methylamino)-2-oxopyridin-1 (2H)-yl)-1H-pyrrolo[2,3-b]pyridin-2-yl)methyl)-1,2,3,6-tetrahydropyridin-4-yl)benzamide]	–
3.69	Cc1cc(C(=O)N(C)C)ccc1C1=CCN([C@@H](C)c2cc3c(-n4ccc(N)c(F)c4=O)ccnc3n2C)CC1 [Example 1m84, (S)-4-(1-(1-(4-(4-amino-3-fluoro-2-oxopyridin-1 (2H)-yl)-1-methyl-1H-pyrrolo[2,3-b]pyridin-2-yl)ethyl)-1,2,3,6-tetrahydropyridin-4-yl)-N,N,3-trimethylbenzamide]	–
7.6	CNc1cc(=O)n(-c2ccnc3c2cc([C@H](C)N2CC=C(c4c(C)cc(C(=O)N(C)C)cc4F)CC2)n3C)cc1F [Example 1m124, (S)-3-fluoro-4-(1-(1-(4-(5-fluoro-4-(methylamino)-2-oxopyridin-1 (2H)-yl)-1-methyl-1H-pyrrolo[2,3-b]pyridin-2-yl)ethyl)-1,2,3,6-tetrahydropyridin-4-yl)-N,N,5-trimethylbenzamide]	–
6.98	Cc1cc(C(=O)N(C)C)cc(F)c1C1=CCN([C@@H](C)c2cc3c(-n4cc(F)c(N)cc4=O)ccnc3n2C)CC1 [Example 1m111, (S)-4-(1-(1-(4-(4-amino-5-fluoro-2-oxopyridin-1 (2H)-yl)-1-methyl-1H-pyrrolo[2,3-b]pyridin-2-yl)ethyl)-1,2,3,6-tetrahydropyridin-4-yl)-3-fluoro-N,N,5-trimethylbenzamide]	–
26.6	[2H]C([2H])([2H])N(C(=O)c1cc(C)c(C2=CCN(Cc3cc4c(-n5ccc(N)nc5=O)ccnc4n3C)CC2)c(F)c1)C([2H])([2H])[2H] [Example 1m78, 4-(1-((4-(4-amino-2-oxopyrimidin-1 (2H)-yl)-1-methyl-1H-pyrrolo[2,3-b]pyridin-2-yl)methyl)-1,2,3,6-tetrahydropyridin-4-yl)-3-fluoro-5-methyl-N,N-bis(methyl-d3)benzamide]	–
3.02	Cc1cc(C(=O)N(C)C)cc(F)c1C1=CCN(Cc2cc3c(-n4ccc5c(c4=O)CCN5)ccnc3n2C)CC1 [Example 1m101, 3-fluoro-N,N,5-trimethyl-4-(1-((1-methyl-4-(4-oxo-1,2,3,4-tetrahydro-5H-pyrrolo[3,2-c]pyridin-5-yl)-1H-pyrrolo[2,3-b]pyridin-2-yl)methyl)-1,2,3,6-tetrahydropyridin-4-yl)benzamide]	–
3.52	[2H]C([2H])([2H])N(C(=O)c1cc(C)c(C2=CCN(Cc3cc4c(-n5ccc(NC)nc5=O)ccnc4n3C)CC2)c(F)c1)C([2H])([2H])[2H] [Example 1m96, 3-fluoro-5-methyl-N,N-bis(methyl-d3)-4-(1-((1-methyl-4-(4-(methylamino)-2-oxopyrimidin-1 (2H)-yl)-1H-pyrrolo[2,3-b]pyridin-2-yl)methyl)-1,2,3,6-tetrahydropyridin-4-yl)benzamide]	–
